From US20250051391A1, “PEPTIDE INHIBITORS AND METHODS FOR INHIBITING PROTEIN AGGREGATION IN NEURONS AND NEURODEGENERATIVE DISEASES” (THE GOVERNING COUNCIL OF THE UNIVERSITY OF TORONTO, priority 2021, published 2025) come the findings set out here.

Test [1] deals with WT a-syn oligomers. Description: Split luciferase a-syn oligomer/aggregation assay. Conditions: cells stably expressing split luciferase a-synuclein constructs; stapled peptides. In kind it is cell-based, human. The procedure:
tet-off cells stably expressing split luciferase a-syn constructs were trypsinized from subconfluent culture and seeded in a 96-well plate at a density of 15,000 cells per well. Cells were incubated overnight at 37° C. in 5% CO2. […] After 6 h of incubation, 20 μL of cell medium was transferred to a black flat-bottomed 96-well plate. 50 μL of Working solution (Pierce Gaussia-Firefly Luciferase Dual Assay Kit, Thermo Scientific #16181) was added into each well containing cell medium. Immediately after adding the reagent, samples were read using a luminometer with a 480 nm filter.

Test [2] has as its system HEK293 cells overexpressing WT or A53T a-syn. Description: Cell Titer-Glo cell viability assay in a-syn expressing cells. Format: cell-based, human. A general note: In ATP-based viability assays light output follows the ATP content of the culture.
The test system is the same in test [3]. The test is described as above. Particulars: HEK293 cells overexpressing WT or A53T a-syn, with or without MG132; expressed GFP-peptide or protein. Format: cell-based, human. The procedure:
Oligonucleotides encoding the specific peptides were synthesized and individually cloned into the pLJM1 nGFP lentiviral vector. Cells were infected with individual constructs, and cell viability was assessed using Cell Titer-Glo Luminescent assay (Promega) at 72 h post infection.
Cells were trypsinized from subconfluent cultures as described earlier, suspended in culture media, and then seeded into triplicate wells of a 96-well plate (100 μl well/1) at a density of 1.5×10^4 cells per well at standard culture conditions of 5% CO2 in air at 37° C. Cells were infected with lentivirus expressing peptide at an MOI of 5 for 72 h or transfected with plasmid for 72 h. Cell Titer-Glo reagent was added to each well (30 μL), according to the manufacturer's protocol and […].

Test [4] concerns a-syn oligomers in HEK293 cells. Description: Oligomers screen (split YFP-a-syn protein fragment complementation, FACS). Format: cell-based, human. Particulars: for Reads GFP High: FACS fraction GFP High; for Reads GFP Inter: FACS fraction GFP Inter; for Reads GFP Neg: FACS fraction GFP Neg. From the text: To detect a-syn oligomers, a protein fragment complementation assay (PCA) of a-syn oligomerization in HEK293 cells (14) was used. In this assay, human A53T a-syn was fused to either the C- or N-terminal half of yellow fluorescent protein (YFP). No fluorescence is detectable while a-syn exists in monomers but, when a-syn oligomerizes, the two halves of YFP come in close enough proximity to form a functional, spontaneously fluorescent protein. […] By using fluorescence activated cell sorting (FACS), cells expressing Flag-tagged peptides that directly or indirectly interfered with a-syn oligomer formation were isolated and then the peptides were identified from genomic DNA (FIG. 1A). The screens yielded 10 hits (Table 1). The hit with the most reads (i.e., the most abundant) was the same peptide in all screens: IPIQLKA (SEQ ID NO: 1) (PDpep1) (Table 2). […] Lead peptide targets CHMP2B, a member of ESCRT-III
PCR primers that included the Illumina adaptor sequences were used to amplify peptide coding sequences recovered from selection and cell sorting. Results were demultiplexed, and peptide counts were tallied. After demultiplexing, only reads with an average quality Phred score of >30 were selected, and frequencies were calculated. Finally, the reads were then normalized to the total number of peptides read for that sample population, and a scalar factor was applied. In parallel, ˜25 individual colonies were Sanger sequenced to compare to the NGS data.
Lentiviruses were made in a 15 cm dish format by transfecting packaging cells (293T) with a three-plasmid system as previously described. Viral transduction of HEK293T cells, tet-off split luciferase a-syn cells, tet-off parent cells, and SH-SY5Y cells were performed with a multiplicity of infection of 0.3 (MOI=0.3). Infected cells were selected in puromycin-containing medium to eliminate uninfected cells and three aliquots of cells were collected for sampling of the initial (TO) cell population. Cells were treated with MG132 at concentrations of 0 μM, 10 μM, 25 μM or 50 μM. For the cell viability screen, surviving cells were collected and gDNA was extracted for identification of peptide inhibitors of cell toxicity. For the inhibition of a-syn aggregation screen, split YFP-a-syn constructs were transfected following stable expression of the peptides. Cells were sorted based on their GFP fluorescence intensities with a FACSVantage SE cell sorter (BD Bioscience).
Cells were harvested by trypsin treatment and centrifuged at 500×g for 5 minutes. The pellet was resuspended in ice-cold PBS and centrifuged again. The pellet was then resuspended at a concentration of 4×10^6 cells/ml in the sorting buffer, which is PBS containing 100 Kunitz Dnase l/ml, 10 μg/ml propidium iodide (Sigma) and 2% FBS. The sorting solution was also supplemented with either 10 μM forskolin, 100 μM 5,6-Dichlorobenzimidazole riboside (DRB, Sigma), 10 μM forskolin (Sigma) and 100 μM DRB or DMSO, as a control. The cells were then sent through a 40 μm filter to remove large clumps and loaded into either a FACScan Flow Cytometer (BD Bioscience) for cell analysis or a FACSVantage SE cell sorter (BD Bioscience) for cell sorting. The cells with positive propidium iodide staining (i.e., dead cells) were first eliminated from the analysis or sorting pool. For cell sorting, the desired population, either the most or least bright EGFP-positive cells, according to the purpose of the experiments (see Results), was sorted into either 15 ml conical tubes or 96-well plates, which both contained complete DMEM culture media.
Genomic DNA (gDNA) from peptide expressing cells at different time-points was extracted using QIAamp DNA Blood Mini Kit. PCR amplifications of peptides from gDNA in parallel with the lentiviral plasmid library (naïve library) were performed using indexed Illumina PCR primers to incorporate both the Illumina adapter sequences and indexing sequences. […]

Test [5] has as its system A53T a-syn. Description: a-syn protein levels by immunoblot in HEK293 cells. In kind it is cell-based, human. Conditions: HEK293 cells expressing A53T a-syn. The procedure: Infected or transfected cells were scraped from 6-well dishes and lysed with lysis buffer (50 mM Tris-HCl pH7.4, 1% Nonidet P-40, 150 mM NaCl, 1 mM EDTA, 1× protease inhibitor mixture (Sigma)) for 30 min at 4° C. The insoluble pellet was removed following a 10,000 rpm spin for 5 minutes at 4° C. Lysates were analyzed by SDS-PAGE/immunoblot using 4-20% Mini-PROTEAN Tris-glycine gels (Bio-Rad) transferred to PVDF membranes and blocked in 5% milk containing PBS-Tween-20 (0.1%) for 1 h. PVDF membranes were then incubated with specified primary antibodies followed by incubation with horseradish peroxidase-conjugated secondary antibodies (Santa Cruz Biotechnology) and detected using enhanced chemiluminescence (GE Healthcare).

The target in test [6] is T1, Charged multivesicular body protein 2B (CHMP2B), full length, purified (human, UniProt Q9UQN3 2-213).
T1 construct: mature; not shown: tag from the pET-DEST42 vector used for Ni-NTA purification
Description: fluorescence polarization. In general terms: Fluorescence polarisation rises when a labelled molecule tumbles more slowly, as on binding a larger partner.

The target of test [7] is T2, CHMP2B 1-199 truncation (human, UniProt Q9UQN3 1-199).
T2 construct: Tags and purification of the truncated protein are not described
Description: fluorescence polarization.

Test [8] concerns the target T2, CHMP2B 1-199 truncation. The test is described as follows: fluorescence polarization, stapled peptide against truncated CHMP2B (1-199).
Test [9] deals with T1, Charged multivesicular body protein 2B …. The test is described as follows: fluorescence polarization, stapled peptide against full length CHMP2B.
In test [10] the target is T3, VPS4B, purified (His-tagged Sumo construct) (UniProt O75351 1-444).
T3 construct: also called Vacuolar Protein Sorting 4; not shown: His tag and Sumo (pRSet B vector)
T3 sequence (looked up): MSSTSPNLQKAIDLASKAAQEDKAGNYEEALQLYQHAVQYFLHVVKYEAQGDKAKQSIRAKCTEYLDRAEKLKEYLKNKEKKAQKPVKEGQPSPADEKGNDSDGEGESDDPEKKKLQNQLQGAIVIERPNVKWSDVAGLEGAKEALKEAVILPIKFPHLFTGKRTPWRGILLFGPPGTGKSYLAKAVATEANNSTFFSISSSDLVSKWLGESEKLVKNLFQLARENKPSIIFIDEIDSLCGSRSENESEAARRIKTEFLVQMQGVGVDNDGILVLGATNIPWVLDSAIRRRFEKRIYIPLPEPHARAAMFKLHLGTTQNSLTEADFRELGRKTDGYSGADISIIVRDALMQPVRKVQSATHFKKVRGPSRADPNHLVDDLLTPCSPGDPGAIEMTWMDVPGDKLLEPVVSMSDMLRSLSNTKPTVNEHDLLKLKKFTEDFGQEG
The test is described as follows: fluorescence polarization (FIG. 8).

Test [11] concerns the target T1, Charged multivesicular body protein 2B …. Description: fluorescence polarization, 50 nM FITC-peptide, CHMP2B titrated.
For test [12], the target named is T3, VPS4B, purified (His-tagged Sumo …). The test is described as follows: fluorescence polarization, FITC-peptide against VPS4B.
The target of test [13] is T1, Charged multivesicular body protein 2B …. The test is described as follows: fluorescence polarization, FITC-labelled a-syn peptide, CHMP2B titrated.

What is called Kd is the equilibrium constant for the complex coming apart. Read a high Kd as a looser complex.

Numbered stars: 1 amine (or outer) side, 2 acyl side, 3 side chain; on linkers, the order of the positions; unused ones are H or OH. Bridge positions count the residues as written; N and C are the ends. Ends that are not written are not given here. Peptide text beside a SMILES is read from it. * marks the point of attachment. Perfluorobiphenyl(4,4') = Fc1c(F)c([*:1])c(F)c(F)c1-c1c(F)c(F)c([*:2])c(F)c1F; FITC = O=C1OC2(c3ccc(O)cc3Oc3cc(O)ccc32)c2ccc(NC(=S)*)cc21; Ahx = NCCCCCC(=O)O

T1 sequence (Q9UQN3 2-213): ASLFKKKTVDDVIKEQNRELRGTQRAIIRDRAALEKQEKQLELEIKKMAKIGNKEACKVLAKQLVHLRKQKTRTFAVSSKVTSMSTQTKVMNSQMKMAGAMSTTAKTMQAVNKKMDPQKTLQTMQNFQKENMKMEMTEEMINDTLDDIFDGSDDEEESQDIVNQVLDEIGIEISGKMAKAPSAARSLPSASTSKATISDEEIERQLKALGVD
T2 sequence (Q9UQN3 1-199 limits assumed): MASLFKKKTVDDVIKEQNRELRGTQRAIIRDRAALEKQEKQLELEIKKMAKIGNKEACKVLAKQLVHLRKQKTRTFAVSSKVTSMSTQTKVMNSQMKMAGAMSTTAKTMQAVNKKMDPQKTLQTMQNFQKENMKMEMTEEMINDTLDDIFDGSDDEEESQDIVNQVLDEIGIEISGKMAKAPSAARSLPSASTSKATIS

As to `CC[C@H](C)[C@H](NC(=O)[C@H](CCC(=O)O)NC(=O)[C@H](CCC(=O)O)NC(=O)[C@H](CC(=O)O)NC(=O)CCCCCNC(=S)Nc1ccc2c(c1)C(=O)OC21c2ccc(O)cc2Oc2cc(O)ccc21)C(=O)N[C@H]1CSc2c(F)c(F)c(c(F)c2F)-c2c(F)c(F)c(c(F)c2F)SC[C@@H](C(N)=O)NC(=O)[C@H](CC(C)C)NC(=O)[C@H](C)NC(=O)[C@H](CC(=O)O)NC(=O)[C@H](CC(C)C)NC(=O)[C@H](CCC(N)=O)NC(=O)[C@H](CCCNC(=N)N)NC1=O` ({FITC-Ahx}-DEEICRQLDALC-NH2; linker 5-12 via Perfluorobiphenyl(4,4'); N-terminus and C-terminus assumed), in [1], the “a-syn aggregation measured by luciferase activity” value (shortened to “a-syn aggregation measured”) is recorded as “significant reduction in a-syn aggregation”. In test [2], the “A53T cell viability, stapled peptides incubated” value (from here on “A53T cell viability”) is “increase in A53T cell viability”.
On to “CHMP2B (1-178): shorter CHMP2B truncation (1-178) implicated in FTD”, for which the “cell viability / cytoprotective effect” value in [3] is “increased toxicity”.
For “DEEYCRQWKALC (cysteine staple) [stapled macrocycle; cysteines introduced at the locations to be stapled]”, the “a-syn aggregation measured” value in test [1] is “significant reduction in a-syn aggregation”. In test [2], the “A53T cell viability” value is on record as “increase in A53T cell viability”.
“DIEICFQLKALC (cysteine staple) [stapled macrocycle; cysteines introduced at the locations to be stapled]”: the “a-syn aggregation measured” value in test [1] is “significant reduction in a-syn aggregation”. The “A53T cell viability” value in test [2] is “increase in A53T cell viability”.
“VYLDILG [7-mer library hit, oligomers screen]”: in test [4], the “Reads Ratio” value stood at 30.55, the “Reads GFP High” value is recorded as 1, the “Reads GFP Inter” value is given as 0 and the “Reads GFP Neg” value was determined as 59.
Consider “ECHTKIR [7-mer library hit, oligomers screen]”, for which, in [4], the “Reads Ratio” value is 39.21, the “Reads GFP High” value amounted to 1, the “Reads GFP Inter” value stood at 0 and the “Reads GFP Neg” value came to 76.
On to “CFLFQIQ [7-mer library hit, oligomers screen]”, for which, in test [4], the “Reads Ratio” value was 45.32, the “Reads GFP High” value is given as 1, the “Reads GFP Inter” value came out at 0 and the “Reads GFP Neg” value came to 88.
For “CHMP2B (1-199): truncated CHMP2B removing the MIM, residues 1-199”, the “cell viability / cytoprotective effect” value in test [3] is “rescues toxicity”. For the same molecule, the “a-syn protein levels by immunoblot” value in test [5] was “reduction in a-syn levels”.
For the molecule “LPSKIYK [7-mer library hit, oligomers screen]”, in [4], the “Reads Ratio” value is given as 29.53, the “Reads GFP High” value is reported as 1, the “Reads GFP Inter” value is listed as 0 and the “Reads GFP Neg” value is listed as 57.
For {FITC}-DIEICFQLKALC (linker 5-12 via hexafluorobenzene (inferred), also called optimized macrocycle) [Stapled peptide DIEICFQLKALC], the binding result in test [6] and in test [7] was “binds” each time.
For {FITC}-DEEICRQLDALC (linker 5-12 via hexafluorobenzene (inferred), also called optimized macrocycle) [Stapled Pdpep1.4 variant DEEICRQLDALC], the dissociation constant (Kd) in test [8] was determined as 60 nM; in test [9] it was 600 nM.

B1: FITC-labeled PDpep1.3 peptide DEEIERQLKALG (peptide)
peptide: {FITC}-DEEIERQLKALG
notes: Synthetic peptide (LifeTein) with an N-terminal FITC moiety, used in the fluorescence polarization assays; also called DPpep1.3; FITC-Pdpep1.3
For B1, the results for the Kd in test [10], in test [11] and in test [12] were more than 100000 nM, 1800 nM and approximately 200000 nM, respectively.
On to {FITC}-NEEGAPQEGILE [FITC-labelled a-syn peptide, amino acids 103-114 (NEEGAPQEGILE)], for which, in [13], the Kd amounted to 640 nM.
